These compounds were tested against human-cGAS (h-cGAS) (Homo sapiens, UniProt Q8N884) (assay: hcGAS Kinase-Glo Assay). Settings: 40 nM h-cGAS, 100 μM ATP, 100 μM GTP, 25 nM dsDNA, 3 h incubation, read-out: hcGAS potency IC50.
Assay type: biochemical
Protocol: In some embodiments, the compounds of the instant disclosure may be tested for their human-cGAS (h-cGAS) inhibition activity using the methodology reported in Lama et al., “Development of human cGAS-specific small molecule inhibitors for repression of double stranded DNA (dsDNA)-triggered interferon expression”, Nature Communications 10, Article number: 2261 (2019), incorporated herein by reference. hcGAS Kinase-Glo Assay Compounds were tested for their human-cGAS (h-cGAS) inhibition activity using the methodology reported in Lama et al., “Development of human cGAS-specific small molecule inhibitors for repression of double stranded DNA (dsDNA)-triggered interferon expression”, Nature Communications 10. Article number: 2261 (2019), which is herein incorporated by reference in its entirety, with slight changes to some conditions as shown in Table B. The results of the assays, expressed in IC50 ranges are reported in Table C with the following designations: A represents an IC50 value <0.1 μM; B represents an IC50 value ≥0.1 μM and <0.5 μM; C represents an IC50 value ≥0.5 μM and <1.0 μM; D represents an IC50 value ≥1.0 μM. [table]

Sequence of human-cGAS (h-cGAS) (Q8N884 whole entry): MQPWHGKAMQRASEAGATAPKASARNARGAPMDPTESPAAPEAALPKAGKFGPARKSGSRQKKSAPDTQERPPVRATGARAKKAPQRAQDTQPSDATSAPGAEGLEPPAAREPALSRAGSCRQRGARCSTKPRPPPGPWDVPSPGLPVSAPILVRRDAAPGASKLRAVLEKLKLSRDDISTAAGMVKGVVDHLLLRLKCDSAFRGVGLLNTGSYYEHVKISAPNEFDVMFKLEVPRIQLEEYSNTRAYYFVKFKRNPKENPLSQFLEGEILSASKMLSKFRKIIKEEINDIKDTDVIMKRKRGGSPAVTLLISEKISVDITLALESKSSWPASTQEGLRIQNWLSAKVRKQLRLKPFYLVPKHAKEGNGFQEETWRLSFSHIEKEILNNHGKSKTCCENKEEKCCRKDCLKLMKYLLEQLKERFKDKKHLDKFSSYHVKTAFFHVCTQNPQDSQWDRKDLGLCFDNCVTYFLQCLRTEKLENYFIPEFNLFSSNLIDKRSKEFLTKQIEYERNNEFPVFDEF

| IC50 | Compound |
| --- | --- |
| ≥ 1000 nM | CSc1nnc(NC(=O)c2onc3c2CCCC3O)s1 (centres unmarked) [Compound 196, 7-Hydroxy-N-(5-(methylthio)-1,3,4-thiadiazol-2-yl)-4,5,6,7-tetrahydrobenzo[c]isoxazole-3-carboxamide] |
| 500 to 1000 nM | CSc1nnc(NC(=O)c2cc(C3CCOCC3)no2)s1 [Compound 80, N-(5-(methylthio)-1,3,4-thiadiazol-2-yl)-3-(tetrahydro-2H-pyran-4-yl)isoxazole-5-carboxamide] |
| 500 to 1000 nM | CSc1nnc(NC(=O)c2cc(-c3ccc(Cl)s3)on2)s1 [Compound 95, 5-(5-chlorothiophen-2-yl)-N-(5-(methylthio)-1,3,4-thiadiazol-2-yl)isoxazole-3-carboxamide] |
| ≥ 1000 nM | O=C(Nc1nnc(-c2ccccc2Cl)s1)c1nnn[nH]1 [Compound 60, N-(5-(2-chlorophenyl)-1,3,4-thiadiazol-2-yl)-1H-tetrazole-5-carboxamide] |
| ≥ 1000 nM | CNC(=O)c1ccc2c(C(=O)Nc3nnc(SC)s3)onc2c1 [Compound 193, N6-methyl-N3-(5-(methylthio)-1,3,4-thiadiazol-2-yl)benzo[c]isoxazole-3,6-dicarboxamide] |
| < 100 nM | O=C(Nc1nnc(-c2ccccc2Cl)s1)c1cc(O)no1 [Compound 55, N-(5-(2-chlorophenyl)-1,3,4-thiadiazol-2-yl)-3-hydroxyisoxazole-5-carboxamide] |
| 100 to 500 nM | CSc1nnc(NC(=O)c2onc3c2ccc2ccccc23)s1 [Compound 220, N-[5-(methylsulfanyl)-1,3,4-thiadiazol-2-yl]naphtho[1,2-c][1,2]oxazole-3-carboxamide] |
| 100 to 500 nM | O=C(Nc1nnc(-c2ccccc2Cl)s1)c1nnc(N2CCC[C@@H]2c2ccccn2)o1 [Compound 117, (R)-N-(5-(2-chlorophenyl)-1,3,4-thiadiazol-2-yl)-5-(2-(pyridin-2-yl)pyrrolidin-1-yl)-1,3,4-oxadiazole-2-carboxamide] |
| 100 to 500 nM | CC(=O)Nc1cc(C(=O)Nc2nnc(-c3ccccc3Cl)s2)on1 [Compound 5, 3-acetamido-N-(5-(2-chlorophenyl)-1,3,4-thiadiazol-2-yl)isoxazole-5-carboxamide] |
| ≥ 1000 nM | CSc1nnc(NC(=O)c2nnc(N3CCNC(=O)C3)o2)s1 [Compound 124, N-(5-(methylthio)-1,3,4-thiadiazol-2-yl)-5-(3-oxopiperazin-1-yl)-1,3,4-oxadiazole-2-carboxamide] |
| ≥ 1000 nM | COc1cccc(-c2cc(C(=O)Nc3nnc(SC)s3)on2)c1 [Compound 212, 3-(3-methoxyphenyl)-N-[5-(methylsulfanyl)-1,3,4-thiadiazol-2-yl]-1,2-oxazole-5-carboxamide] |
| 100 to 500 nM | O=C(Nc1nnc(-c2ccccc2Cl)s1)c1cc(-c2ncc3ccccc3n2)no1 [Compound 155, N-(5-(2-Chlorophenyl)-1,3,4-thiadiazol-2-yl)-3-(quinazolin-2-yl)isoxazole-5-carboxamide] |
| 100 to 500 nM | O=C(Nc1nnc(-c2ccccc2Cl)s1)c1cc(CCO)no1 [Compound 179, N-(5-(2-chlorophenyl)-1,3,4-thiadiazol-2-yl)-3-(2-hydroxyethyl)isoxazole-5-carboxamide] |
| 500 to 1000 nM | CSc1nnc(NC(=O)c2nc(Nc3ccccc3)no2)s1 [Compound 265, N-(5-(methylthio)-1,3,4-thiadiazol-2-yl)-3-(phenylamino)-1,2,4-oxadiazole-5-carboxamide] |
| 500 to 1000 nM | CSc1nnc(NC(=O)c2nc(-c3ccccc3)no2)s1 [Compound 234, N-[5-(methylsulfanyl)-1,3,4-thiadiazol-2-yl]-3-phenyl-1,2,4-oxadiazole-5-carboxamide] |
| < 100 nM | COCCc1cc(C(=O)Nc2nnc(-c3ccccc3Cl)s2)on1 [Compound 169, N-(5-(2-chlorophenyl)-1,3,4-thiadiazol-2-yl)-3-(2-methoxyethyl)isoxazole-5-carboxamide] |
| 500 to 1000 nM | CSc1nnc(NC(=O)c2noc(N3CCCCC3c3ccccc3)n2)s1 (centres unmarked) [Compound 103, N-(5-(methylthio)-1,3,4-thiadiazol-2-yl)-5-(2-phenylpiperidin-1-yl)-1,2,4-oxadiazole-3-carboxamide] |
| 500 to 1000 nM | CSc1nnc(NC(=O)c2nc(Cc3ccccc3)no2)s1 [Compound 261, 3-benzyl-N-(5-methylsulfanyl-1,3,4-thiadiazol-2-yl)-1,2,4-oxadiazole-5-carboxamide] |
| 500 to 1000 nM | CSc1nnc(NC(=O)c2onc3c(Cl)cccc23)s1 [Compound 228, 7-chloro-N-[5-(methylsulfanyl)-1,3,4-thiadiazol-2-yl]-2,1-benzoxazole-3-carboxamide] |

| IC50 | Compound |
| --- | --- |
| ≥ 1000 nM | CSc1nnc(NC(=O)c2noc(N3CCCC(C)(C)C3)n2)s1 [Compound 100, 5-(3,3-dimethylpiperidin-1-yl)-N-(5-(methylthio)-1,3,4-thiadiazol-2-yl)-1,2,4-oxadiazole-3-carboxamide] |
| ≥ 1000 nM | CSc1nnc(NC(=O)c2cc3ccccc3c(=O)o2)s1 [Compound 207, N-(5-(methylthio)-1,3,4-thiadiazol-2-yl)-1-oxo-1H-isochromene-3-carboxamide] |
| ≥ 1000 nM | O=C(Nc1nnc(-c2c[nH]cn2)s1)c1onc2ccccc12 [Compound 129, N-[5-(1H-imidazol-4-yl)-1,3,4-thiadiazol-2-yl]-2,1-benzoxazole-3-carboxamide] |
| ≥ 1000 nM | O=C(Nc1nnc(-c2cn[nH]c2)s1)c1onc2ccccc12 [Compound 145, N-(5-(1H-pyrazol-4-yl)-1,3,4-thiadiazol-2-yl)benzo[c]isoxazole-3-carboxamide] |
| ≥ 1000 nM | CSc1nnc(NC(=O)c2nc(-c3cccs3)oc2C)s1 [Compound 77, 5-methyl-N-(5-(methylthio)-1,3,4-thiadiazol-2-yl)-2-(thiophen-2-yl)oxazole-4-carboxamide] |
| ≥ 1000 nM | CSc1nnc(NC(=O)c2onc3ccc(CN4CC[C@@H](O)[C@H](O)C4)cc23)s1 (racemic) [rac-183, 5-((3,4-rac-trans-dihydroxypiperidin-1-yl)methyl)-N-(5-(methylthio)-1,3,4-thiadiazol-2-yl)benzo[c]isoxazole-3-carboxamide] |
| 100 to 500 nM | NC(=O)c1cc(C(=O)Nc2nnc(-c3ccccc3Cl)s2)on1 [Compound 32, N5-(5-(2-chlorophenyl)-1,3,4-thiadiazol-2-yl)isoxazole-3,5-dicarboxamide] |
| 500 to 1000 nM | CSc1nnc(NC(=O)c2nnc(N3CCC(C)(C)CC3)o2)s1 [Compound 120, 5-(4,4-dimethylpiperidin-1-yl)-N-(5-(methylthio)-1,3,4-thiadiazol-2-yl)-1,3,4-oxadiazole-2-carboxamide] |
| 500 to 1000 nM | CSc1nnc(NC(=O)c2cc3c(C)cc(F)cc3[nH]2)s1 [Compound 78, 6-fluoro-4-methyl-N-(5-(methylthio)-1,3,4-thiadiazol-2-yl)-1H-indole-2-carboxamide] |
| ≥ 1000 nM | CSc1nnc(NC(=O)c2onc3c2CCc2cnc(C)nc2-3)s1 [Compound 174, 8-Methyl-N-(5-(methylthio)-1,3,4-thiadiazol-2-yl)-4,5-dihydroisoxazolo[4,3-h]quinazoline-3-carboxamide] |
| 500 to 1000 nM | CSc1nnc(NC(=O)c2nnc(N3CCCCC3c3ccccc3)o2)s1 (centres unmarked) [Compound 149, N-(5-(methylthio)-1,3,4-thiadiazol-2-yl)-5-(2-phenylpiperidin-1-yl)-1,3,4-oxadiazole-2-carboxamide] |
| 500 to 1000 nM | COc1ccccc1-c1nnc(NC(=O)c2onc3ccccc23)s1 [Compound 24, N-(5-(2-methoxyphenyl)-1,3,4-thiadiazol-2-yl)benzo[c]isoxazole-3-carboxamide] |
| 500 to 1000 nM | O=C(Nc1nncs1)c1onc2c1ccc1cccnc12 [Compound 13, N-(1,3,4-thiadiazol-2-yl)isoxazolo[4,3-h]quinoline-3-carboxamide] |
| 100 to 500 nM | CSc1nnc(NC(=O)c2cc(-c3cccc4c(C)ccnc34)cc(=O)o2)s1 [Compound 267, 4-(4-methylquinolin-8-yl)-N-(5-(methylthio)-1,3,4-thiadiazol-2-yl)-2-oxo-2H-pyran-6-carboxamide] |
| 100 to 500 nM | COc1cccc2c(C(=O)Nc3nnc(SC)s3)onc12 [Compound 230, 7-methoxy-N-[5-(methylsulfanyl)-1,3,4-thiadiazol-2-yl]-2,1-benzoxazole-3-carboxamide] |
| ≥ 1000 nM | CSc1nnc(NC(=O)c2ccc(-c3ccccc3)c(=O)o2)s1 [Compound 225, N-[5-(methylsulfanyl)-1,3,4-thiadiazol-2-yl]-6-oxo-5-phenylpyran-2-carboxamide] |
| 500 to 1000 nM | CSc1nnc(NC(=O)c2onc3c2CCc2sc(C)nc2-3)s1 [Compound 181, 7-methyl-N-(5-(methylthio)-1,3,4-thiadiazol-2-yl)-4,5-dihydrothiazolo[5′,4′:5,6]benzo[1,2-c]isoxazole-3-carboxamide] |
| 500 to 1000 nM | CSc1nnc(NC(=O)c2nnc(N(C)Cc3ccccc3)o2)s1 [Compound 113, 5-[benzyl(methyl)amino]-N-[5-(methylsulfanyl)-1,3,4-thiadiazol-2-yl]-1,3,4-oxadiazole-2-carboxamide] |
| < 100 nM | O=C(Nc1nnc(-c2ccccc2Cl)s1)c1cc(Nc2ccccc2)cc(=O)o1 [Compound 206, N-[5-(2-chlorophenyl)-1,3,4-thiadiazol-2-yl]-6-oxo-4-(phenylamino) pyran-2-carboxamide] |

From patent US20250002487A1, “HETEROCYCLIC COMPOUNDS AND USES THEREOF” (Ventus Therapeutics U.S., Inc., priority 2021, published 2025)
